Experimental data from patent US4798787A, “Peptide antibodies and their use in detecting oncogene products” (Cetus Corporation, priority 1984, dated 1989).

Molecular target: T1, p21 protein (v-Ki-ras p21, serine at position 12) (Kirsten murine sarcoma virus, UniProt P01117)
T1 construct: made in house; host or cells: E. coli (plasmid pINIII-ras, gift of M. Inouye, printed 'Inouge')
Assay: Inhibition by nucleotides of anti-p21ser antibody binding to p21 protein under mild denaturation conditions
Settings: 10 mM nucleotide
Source text: An alternative explanation is that the antibody binds at some distance from the GTP binding site and yet alters GTP binding by disturbing the tertiary structure of the protein. […] The invention herein is not limited to either explanation.

T1 sequence (P01117 whole entry): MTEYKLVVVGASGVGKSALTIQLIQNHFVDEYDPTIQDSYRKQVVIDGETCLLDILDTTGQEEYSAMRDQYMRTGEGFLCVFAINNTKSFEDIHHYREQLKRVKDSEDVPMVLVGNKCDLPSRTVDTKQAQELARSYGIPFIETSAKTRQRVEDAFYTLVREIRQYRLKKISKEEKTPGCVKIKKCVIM

Nc1nc2c(ncn2[C@@H]2O[C@H](COP(=O)(O)OP(=O)(O)OP(=O)(O)O)[C@@H](O)[C@H]2O)c(=O)[nH]1 [GTP, guanosine triphosphate]
inhibition of the binding of anti-p21ser antibodies to p21 protein: substantially inhibit

Nc1ncnc2c1ncn2[C@@H]1O[C@H](COP(=O)(O)OP(=O)(O)OP(=O)(O)O)[C@@H](O)[C@H]1O [ATP]
inhibition of the binding of anti-p21ser antibodies to p21 protein: not
